Laboratory results taken from US6462043B1 (dated 2002).

SMILES	melting point [°C]
CCCOCCCN1CN(C)/C(=N/[N+](=O)[O-])N(Cc2ccc(Cl)nc2)C1	70 to 72
CN/C(=N/[N+](=O)[O-])NCc1cnc(Cl)c(Cl)c1	173 to 174
